Counter-ions that a name gives are not always drawn. Values belong to the compound of their own block, whether it stands above or below them.
Assays:
[1] = hydrochloride salt, cited from earlier work
IOP = settings: cited from earlier work; for efficiency in decreasing the 24-h IOP: compared with agents that decrease AH production
[2] = cited from earlier work
[3] = cited from earlier work; remark: listed apart in the source
[4] = In vitro delivery of drug from ocular inserts in a humidified Franz-diffusion cell, artificial lachrymal fluid receiver, HPLC; format: physicochemical
Source text: Delivery is monitored in vitro using a Franz-diffusion cell, with the insert in contact with a dialysis membrane to provide support. A membrane with an appropriate molecular weight cut-off is used to allow the passage of pharmaceutical product but not polymer. The receiver solution is an artificial lachrymal fluid, containing NaHCO3 2.2 g/l; NaCl 6.26 g/l; KCl 1.79 g/l; CaCl2.2H2O 0.0735 g/l; MgCl2.6H2O 0.0964 g/l in distilled water (pH to 7.5 with 0.1 M HCl). The temperature used in the diffusion cells is controlled so the internal temperature is 32° C. (the temperature of the corneal surface). The tops of the diffusion cells are sealed using parafilm and the system equilibrated overnight (to give a humid environment). The insert is weighed, then placed on the dialysis membrane and resealed. Samples of delivered pharmaceutical product are removed from the receiver fluid and replaced with fresh liquid to maintain a constant volume. Pharmaceutical product in the receiver fluid is analysed by HPLC. Samples of 1 ml are withdrawn and replaced at given intervals through the side arm. The insert is placed in the donor at time 0. Samples were analysed using HPLC methods described above. It is recommended that betaxolol is analysed within 24 h, or samples frozen. The quantity of drug which has been released at any given time can be calculated using the following equation: […] wherein: Vr is the volume of receiver (ml) Vs the sample volume C[n] is the concentration in the dissolution medium (mg/l) ΣC[m] is the sum total of previous concentrations (mg/l) Mt is the drug released at time t (mg)

SMILES: CC(C)NCC(O)COc1ccc(CCOCC2CC2)cc1 (stereo not shown) [Betaxolol]
time of maximum effect ([1]; after topical administration): about 2 hours
onset of action ([1]; topical administration): ≤ 30 min

SMILES: CCNC(=O)CCC/C=C\C[C@@H]1[C@@H](/C=C/[C@@H](O)CCc2ccccc2)[C@H](O)C[C@@H]1O [bimatoprost]
efficiency in decreasing the 24-h IOP (IOP): more efficient in decreasing the 24-h IOP

SMILES: O=C(O)CCC/C=C\C[C@@H]1[C@@H](CC[C@@H](O)CCc2ccccc2)[C@H](O)C[C@@H]1O [latanoprost acid]
half-life in aqueous humor [2]: 2.8 h

SMILES: CC(C)OC(=O)CCC/C=C\C[C@@H]1[C@@H](CC[C@@H](O)CCc2ccccc2)[C@H](O)C[C@@H]1O [latanoprost]
efficiency in decreasing the 24-h IOP (IOP): more efficient in decreasing the 24-h IOP
solubility in acetone and ethanol ([3]; acetone and ethanol): soluble
solubility in water ([3]; water): insoluble

timolol released by 6 hours from the beginning of the experiment ([4]; laminated travoprost/timolol insert, 6 hours): over 90%
timolol released for the first 5 hours ([4]; laminated travoprost/timolol insert, first 5 hours): essentially no timolol was released
SMILES: CC(C)(C)NC[C@H](O)COc1nsnc1N1CCOCC1 [timolol, timolol maleate]
capacity in decreasing IOP at night (IOP; night): reduced capacity in decreasing IOP at night

period over which travoprost was released at a substantially constant rate ([4]; laminated travoprost/timolol insert, humidity, 32° C., FIG. 5): about 8 hours
period over which travoprost was released at a substantially-constant rate ([4]; single layer PEO insert with 10% carbopol, travoprost alone, humidity, 32° C., FIG. 4): about 8 hours
SMILES: CC(C)OC(=O)CCC/C=C\C[C@@H]1[C@@H](/C=C/[C@@H](O)COc2cccc(C(F)(F)F)c2)[C@H](O)C[C@@H]1O [travoprost]
efficiency in decreasing the 24-h IOP (IOP): more efficient in decreasing the 24-h IOP

From patent US20090155338A1, “Chronotherapeutic Ocular Delivery System Comprising a Combination of Prostaglandin and a Beta-Blocker for Treating Primary Glaucoma” (ASTON UNIVERSITY, priority 2005, published 2009)
